Laboratory results as given in patent US11465997B2, “Synthesis of disorazoles and analogs thereof as potent anticancer agents” (WILLIAM MARSH RICE UNIVERSITY, priority 2017, dated 2022).
Like-named read-outs stand apart in the source and are kept apart here. Non-standard residues stand in square brackets, D forms with d. Residues, ends and D or L forms follow the SMILES beside them. *: point of attachment. Dolaproine = CO[C@@H]([C@@H]1CCCN1)[C@@H](C)C(=O)O; Dil = CC[C@H](C)[C@H](NC)[C@@H](CC(=O)O)OC; X1 = C[C@@H](N*)[C@@H](O)c1ccccc1; NMeV = CN[C@H](C(=O)O)C(C)C

How the values were obtained:
lung cancer cell lines = settings: Jansen et al., 1994 and Elnakady et al., 2004, read-out: IC50 against lung cancer cell line; cited from earlier work
[1] = system: ovarian cancer cell lines; settings: Jansen et al., 1994 and Elnakady et al., 2004, read-out: IC50 against ovarian cancer cell line; cited from earlier work
[2] = system: prostate cancer cell lines; settings: Jansen et al., 1994 and Elnakady et al., 2004, read-out: IC50 against prostate cancer cell line; cited from earlier work
[3] = system: MES SA uterine sarcoma cell line; assay: 72 h killing (cytotoxicity) assay, MES SA; type: cell-based, human; settings: MES SA cells, read-out: Cytotoxic activity IC50
[4] = system: MES SA DX (MES SA cell line with marked multidrug resistance); assay: 72 h killing (cytotoxicity) assay, MES SA DX; type: cell-based, human; settings: MES DX (MES SA DX) cells, multidrug resistant, read-out: Cytotoxic activity IC50
[5] = 72 h killing (cytotoxicity) assay, HEK 293T; type: cell-based; settings: human; 293T (HEK 293T) cells; read-out: Cytotoxic activity IC50
[6] = solubility of the product in solvents; type: physicochemical; settings: e.g., MeOH, DMSO, DCM, CHCl3, MeCN
Experimental: To a stirred solution of compound 108 (9.0 mg, 9.0 μmol, 1.0 equiv) in DMF (300 μL) and H2O (2.3 μl, 130 μmol, 14 equiv) was added TASF (12 mg, 45 μmol, 5.0 equiv) and the reaction mixture was heated at 40° C. and stirred for 48 h. The resulting mixture was filtered through a small silica pad (10 cm, SiO2, hexanes:EtOAc 1:1→0:1). The resulting fractions containing the desired products were combined, concentrated and purified by flash column chromatography (SiO2, hexanes:EtOAc 1:1→1:4→0:1) to yield bis-(cp-thiazolyl)-disorazole B1 (7, 3.0 mg, 4.2 μmol, 46% yield) as a white foam. […] 86: Rf=0.15 (hexanes:EtOAc, 2:3); IR (film): vmax=3439, 2922, 2852, 1714, 1629, 1212, 1104, 964 cm^−1; ^1H NMR (600 MHz, DMSO-d6 with DCM) δ 8.37 (s, 2H), 6.45-6.37 (m, 2H), 6.21 (d, J=11.9 Hz, 2H), 6.15 (t, J=11.8 Hz, 2H), 5.66 (dd, J=14.1, 11.0 Hz, 2H), 5.60-5.49 (m, 4H), 5.39-5.31 (m, 2H), 5.23-5.11 (m, 4H), 4.64 (d, J=4.6 Hz, 2H), 3.73 (t, J=5.3 Hz, 2H), 2.70 (q, J=12.0 Hz, 2H), 2.29-2.22 (m, 2H), 2.22-2.13 (m, 2H), 1.82-1.73 (m, 2H), 1.64 (d, J=4.9 Hz, 6H), 0.96 (s, 6H), 0.88 (s, 6H), 0.60 (dd, J=10.4, 4.9 Hz, 4H) ppm; ^13C NMR (151 MHz, DMSO-d6 with DCM) δ 163.45, 159.37, 145.61, 142.90, 133.36, 131.70, 131.53, 127.55, 126.37, 125.78, 123.99, 118.18, 76.27, 75.30, 41.33, 27.65, 23.24, 19.05, 19.03, 18.95, 17.63, 16.64. ppm; HR-MS (ESI-TOF): calcd for C44H54O6N2S2Na^+ [M+Na]^+: 793.3316. […]

For C/C=C/[C@H](O)C(C)(C)[C@@H]1C\C=C/C=C\C=C\[C@H](OC)Cc2nc(co2)C(=O)O[C@H](C(C)(C)[C@@H](O)/C=C/C)C/C=C\[C@H]2O[C@H]2/C=C/C=C\c2nc(co2)C(=O)O1 [Disorazole A1, (2Z,4E,6S,8R,9Z,12S,20R,21E,23Z,25Z,28S)-12,28-Bis[(3S,4E)-3-hydroxy-2-methylhex-4-en-2-yl]-20-methoxy-7,13,17,29,33-pentaoxa-34,35-diazatetracyclo[29.2.1.1^15,18.0^6,8]pentatriaconta-1 (34),2,4,9,15,18 (35),21,23,25,31-decaene-14,30-dione], the IC50 (lung cancer cell lines) is listed as 2.3 pM, the IC50 [1] is listed as 4.9 pM and the IC50 [2] is listed as 7.1 pM.

In the case of CC[C@H](C)[C@@H]([C@@H](CC(=O)N1CCC[C@H]1[C@H](OC)[C@@H](C)C(=O)N[C@H](C)[C@@H](O)c1ccccc1)OC)N(C)C(=O)[C@@H](NC(=O)[C@@H](NC)C(C)C)C(C)C [MMAE, monomethyl auristatin E] (H-[NMeV]V[Dil][Dolaproine]-X1), the IC50 [3] is reported as 0.51 nM and the IC50 [4] is reported as 106 nM.

Compound C/C=C/[C@H](O)C(C)(C)[C@@H]1C\C=C/C=C\C=C\[C@H](OC)Cc2nc(co2)C(=O)O[C@H](C(C)(C)[C@@H](O)/C=C/C)C/C=C\[C@H]2C[C@H]2/C=C/C=C\c2nc(co2)C(=O)O1 [compound 5, (2Z,4E,6S,8R,9Z,12S,20R,21E,23Z,25Z,28S)-12,28-Bis[(3S,4E)-3-hydroxy-2-methylhex-4-en-2-yl]-20-methoxy-13,17,29,33-tetraoxa-34,35-diazatetracyclo[29.2.1.1^15,18.0^6,8]pentatriaconta-1 (34),2,4,9,15,18 (35),21,23,25,31-decaene-14,30-dione] has an IC50 ([3]; Homo sapiens) of 0.11 nM, an IC50 ([4]; Homo sapiens) of 0.47 nM and an IC50 at 72 h [5] of 0.06 nM.

In the case of C/C=C/[C@H](O)C(C)(C)[C@@H]1C/C=C\[C@H]2C[C@H]2/C=C/C=C\c2nc(cs2)C(=O)O[C@H](C(C)(C)[C@@H](O)/C=C/C)C/C=C\[C@H]2C[C@H]2/C=C/C=C\c2nc(cs2)C(=O)O1 [compound 86, (2Z,4E,6S,8R,9Z,12S,19Z,21E,23S,25R,26Z,29S)-12,29-Bis[(3S,4E)-3-hydroxy-2-methylhex-4-en-2-yl]-13,30-dioxa-17,34-dithia-35,36-diazapentacyclo[30.2.1.1^15,18.0^6,8.0^23,25]hexatriaconta-1 (35),2,4,9,15,18 (36),19,21,26,32-decaene-14,31-dione], the “solubility in pure solvents” value [6] is reported as “insoluble in most pure solvents”.
